Assay [1] concerns Mycobacterium smegmatis ATCC 607. In words: Antimicrobial assay, liquid growth inhibition in 96-well microplates. Conditions: Mycolicibacterium smegmatis; Mycobacterium smegmatis ATCC607; OD 600 nm after 12 h at 37 °C; read-out: Antibacterial activity IC50, MS. The format is cell-based. The method, then: (§1) The antimicrobial activity was assayed against the Gram-positive bacterial strains Mycobacterium smegmatis ATCC 607 and Staphylococcus aureus ATCC 25923, Gram-negative Escherichia coli ATCC 8739 and Pseudomonas aeruginosa ATCC 9027 and yeast Candida albicans ATCC10231 by liquid growth inhibition in 96-well microplates. Briefly, precultures of the tested microorganisms were made by inoculating 10 mL of medium (LB medium for bacteria and YM medium for fungus) and incubated for 24 h at 37 °C for bacteria or 48 h at 28 °C for fungus. Then, the cell density was adjusted to 10^4−10^5 cfu mL^−1 by the corresponding broth. An aliquot of 200 μL of the microbial suspension was distributed in each well containing 2-fold serial dilution of the tested compounds. The plate was incubated at 37 °C for 12 h for the bacteria or at 28 °C for 48 h for the fungus, and the optical density of each well was measured at 600 nm spectrophotometrically. IC50 values were defined as the concentration of a compound resulting in a 50% decrease in the number of microbial cultures compared to the blank control. The experiment was run in three replicates.

Assay [2] has as its system Staphylococcus aureus ATCC 25923. The assay is described as above. The format is cell-based. Conditions: Staphylococcus aureus ATCC25923; OD 600 nm after 12 h at 37 °C; read-out: Antibacterial activity IC50, SA. The procedure: as §1

Bounds are passed on as bounds.

As a reminder, the IC50 is the point on the concentration scale where inhibition reaches its midpoint.

For the molecule `CO/N=C(\C(=O)N[C@@H]1C(=O)N2C(C(=O)O)=C(CSc3nc(=O)c(=O)[nH]n3C)CS[C@H]12)c1csc(N)n1` [Ceftriaxone sodium, reference compound], the IC50 in assay [1] and in assay [2] was less than 1 µM each time.

As to `CC1CCC2C(C=CC(C)C2C(=O)c2c3c(c[nH]c2=O)C2(O)CCC(O)C(O)C2O3)C1` (stereo not drawn) [Compound 3, Arthpyrone F], the IC50 in assay [1] stood at 11.4 µM; in assay [2] it was 8.97 µM.

Turning to `C[C@@H]1CC[C@H]2[C@H](C(=O)c3c(=O)[nH]cc4c5c(oc34)[C@H](O)[C@H](O)CC5)[C@H](C)C=C[C@@H]2C1` [Compound 4, Arthpyrone G], the IC50 in assay [1] was greater than 50 µM; in assay [2], 42.8 µM.

For `CO[C@H]1[C@H](O)CC[C@](O)(c2c[nH]c(=O)c(C(=O)[C@H]3[C@@H]4CC[C@@H](C)C[C@H]4C=C[C@H]3C)c2O)[C@@H]1O` [Compound 5, Arthpyrone H], the values for the IC50 in assay [1] and in assay [2] were 19.4 µM and 8.37 µM, respectively.

For `CO[C@]1(c2c[nH]c(=O)c(C(=O)[C@H]3[C@@H]4CC[C@@H](C)C[C@H]4C=C[C@H]3C)c2O)CC[C@@H](O)[C@H](O)[C@H]1O` [Compound 6, Arthpyrone I], the figures for the IC50 in assay [1] and in assay [2] were 35.3 µM and 14.1 µM, respectively.

Turning to `CC1CCC2C(C=CC(C)C2C(=O)c2c(O)c(C3(O)CCC(O)C4OC43)c[nH]c2=O)C1` (stereo not drawn) [Compound 9, apiosporamide], the IC50 in assay [1] is 2.2 µM; in assay [2], 1.66 µM.

(Values after paper PMC5983305, “Bioactive Pyridone Alkaloids from a Deep-Sea-Derived Fungus Arthrinium sp. UJNMF0008” (Marine Drugs, 2018).)
